Results on 7 compounds are retold here after patent US11332490B1, “Compounds and methods for treating osteoarthritis” (Academia Sinica, priority 2021, dated 2022).

For data set [1], the target named is T1, Sulf-1 (Homo sapiens, UniProt Q8IWU6). Briefly: Competition assay with 4-MUS substrate (fluorogenic). Format: biochemical. More on the design: made in house. The following applies: for EC50: competition with 4-MUS for Sulf-1. On the procedure:
Competition assay with 4-MUS substrate. […] A control mixture without the competing substrate was defined as 100% fluorescent intensity, and the sample with substrate was determined as percentage of fluorescent intensity: (Fluorescent intensity of substrate sample)/(Fluorescent intensity of control sample).
HS oligosaccharides of Example 1.2 were used as competing substrates in the presence of 4-MUS for the identification of Sulf-1 substrate. Compounds 18-20 as well as the commercially available heparin 3000 were independently assessed for their competing effect on 4-MUS cleavage by Sulf-1 to yield the fluorescent 4-methylumbelliferone (4-MU) (FIG. 1, (A)).

Data set [2] concerns the target T1, Sulf-1. Briefly: HPLC assay of sulfate ion release from the substrate by Sulf-1. The following applies: substrate 480 μM, treated with human Sulf-1, HPLC.
Description: (§1) HPLC assay. […] Release of the sulfate ion from the substrate was quantified via HPLC. Each sample (5 μL) was injected to AS9HC anion-exchange column (Dionex), and the sulfate ion was eluted by 9 mM Na2CO3 then analyzed by a conductivity detector (PROD, AERS500, 4 mm, Thermal) with reagent-free controller (PROD, RFC-10) and compared with a standard curve with Na2SO4 (Merck) from 0 to 500 μM.
In data set [3] the target is T1, Sulf-1. Briefly: Sulf-1 inhibition assay (4-MU released from 4-MUS).
Description: Sulf-1 inhibition assay. […] The data obtained were fitted to the Michaelis-Menten equation using the GraphPad to determine the enzyme inhibition parameters.
Data set [4] addresses T2, human Sulf-1d417-726 (Homo sapiens, UniProt Q8IWU6, DEL417-726).
T2 construct: made in house
Description: Determination of dissociation constant (KD) using surface plasmon resonance. The following applies: compound immobilized on CM5 sensor chip, 1:1 Langmuir model. Format: binding. On the procedure:
Determination of dissociation constant (KD) using surface plasmon resonance. Compound 46 was immobilized on the surface of a Biacore sensor chip (GE Healthcare) according to the manufacturer's guidelines using Biacore T200 system. The kinetic analysis study was performed at different concentrations of hSulf1d417-726 protein upon serial dilution to 250, 125, 63, 31 and 15 nM in running buffer [20 mM NaOAc (pH 5.0), 150 mM NaCl, and 0.05% Tween 20] and injected on to the chip surface with a flow rate of 25 μL/min at 25° C. In each run, the chip sensor surface was regenerated by injecting 4 M NaCl. The titration curves fit well to a 1:1 Langmuir binding model for calculations of equilibrium constants.
With highest inhibitory activity, the binding affinity of the inhibitor 46 with human Sulf-1 was further measured by surface plasmon resonance (SPR). The hydrophilic domain-deleted mutant of Sulf-1, namely human Sulf-1d417-726, lacking two furin-type proteinase cleavage sites responsible for forming the disulfide-bonded heterodimers of 75- and 50-kDa subunits with retained enzyme activity was constructed according to the literature report. Compound 46 was immobilized on the CM5 sensor chip, and aliquots of human Sulf-1d417-726 at gradient concentrations were applied onto the chip.

Data set [5] deals with NCCCCCO[C@@H]1OC(C(=O)O)C(O[C@H]2OC(COS(=O)(=O)O)[C@@H](O[C@@H]3OC(C(=O)O)C(O)[C@@H](O)C3OS(=O)(=O)O)[C@H](O)C2NS(=O)(=O)O)[C@@H](O)C1OS(=O)(=O)O. Briefly: purified protein, by the assay type. As to conditions: other: released sulfate at different substrate concentrations; pH 7.4; 37.0 °C.
Description: as §1

Entries after “also recorded” stand apart in the source; their conditions may differ.

With `NCCCCCO[C@@H]1OC(C(=O)O)C(O[C@@H]2OC(COS(=O)(=O)O)[C@@H](O)C(O)C2NS(=O)(=O)O)[C@@H](O)C1OS(=O)(=O)O` (stereo partly drawn) [Compound 18], the “fluorescence intensity (4-MUS hydrolysis, % of control)” value in data set [1] (competitor 320 μM, 4-MUS 4.35 mM, 4-MUS with Sulf-1 in pure water = 100%) was determined as 94.5%. Besides, the “sulfate concentration upon hydrolysis by Sulf-1” value in data set [2] worked out at 5.9 µM.
Regarding `NCCCCCO[C@@H]1O[C@@H](C(=O)O)[C@@H](O[C@H]2O[C@H](COS(=O)(=O)O)[C@@H](O[C@@H]3O[C@@H](C(=O)O)[C@@H](O[C@H]4O[C@H](COS(=O)(=O)O)[C@@H](O)[C@H](O)[C@H]4NS(=O)(=O)O)[C@H](O)[C@H]3OS(=O)(=O)O)[C@H](O)[C@H]2NS(=O)(=O)O)[C@H](O)[C@H]1OS(=O)(=O)O` [Compound 19], the EC50 (commonly the concentration that produces a half-maximal response) in data set [1] was found to be 87.8 µM. Moreover, in data set [1] (competitor 320 μM (0.32 mM), 4-MUS 4.35 mM), the “competing effect on 4-MUS cleavage by Sulf-1 (in words)” value is “strongly compete with 4-MUS; also recorded: good binder”. For the same compound, in data set [2], the “sulfate concentration upon hydrolysis by Sulf-1” value came to 46.2 µM.
Take `NCCCCCO[C@@H]1OC(C(=O)O)C(O[C@H]2OC(COS(=O)(=O)O)[C@@H](O[C@@H]3OC(C(=O)O)C(O)[C@@H](O)C3OS(=O)(=O)O)[C@H](O)C2NS(=O)(=O)O)[C@@H](O)C1OS(=O)(=O)O` (stereo partly drawn) [Compound 36]: it took 3.8 µM to reach a half-maximal effect in data set [1] (EC50).
In the case of `NCCCCCO[C@@H]1OC(C(=O)O)C(O[C@H]2OC(COS(N)(=O)=O)[C@@H](O)C(O)C2NS(=O)(=O)O)[C@@H](O)C1OS(=O)(=O)O` (stereo partly drawn) [Compound 45], the inhibition at 700 µM in data set [3] (read-out: Sulf-1 activity inhibited) was found to be 20%.
In the case of `NCCCCCO[C@@H]1O[C@@H](C(=O)O)[C@@H](O[C@H]2O[C@H](COS(N)(=O)=O)[C@@H](O[C@@H]3O[C@@H](C(=O)O)[C@@H](O)[C@H](O)[C@H]3OS(=O)(=O)O)[C@H](O)[C@H]2NS(=O)(=O)O)[C@H](O)[C@H]1OS(=O)(=O)O` [Compound 46], in data set [3], the IC50 – broadly, the concentration that inhibits the measured activity by half – was 0.53 µM and the Ki (commonly the equilibrium dissociation constant of an inhibitor or competing ligand from its target) was 0.36 µM. Besides, the Kd (usually the constant that tells how readily two partners part at equilibrium) in data set [4] is 0.012 µM.
Consider `NCCCCCO[C@@H]1O[C@@H](C(=O)O)[C@@H](O[C@H]2O[C@H](COS(N)(=O)=O)[C@@H](O[C@@H]3O[C@@H](C(=O)O)[C@@H](O[C@H]4O[C@H](COS(N)(=O)=O)[C@@H](O)[C@H](O)[C@H]4NS(=O)(=O)O)[C@H](O)[C@H]3OS(=O)(=O)O)[C@H](O)[C@H]2NS(=O)(=O)O)[C@H](O)[C@H]1OS(=O)(=O)O` [Compound 47], for which, in data set [3], the half-maximal inhibitory concentration (IC50) was 29.6 µM.
With human Sulf-1 (Homo sapiens), the Km (as a rule, the substrate concentration at which the rate is half of its maximum) in data set [5] amounted to 25.8 µM.
